Read-outs that look alike come from different tables or passages of the source.

From patent publication US9334280B2, “Synthetic rigidin analogues as anticancer agents, salts, solvates and prodrugs thereof, and method of producing same” (New Mexico Technical Research Foundation, priority 2012, dated 2016) come the findings set out here.

Assay [1] concerns HeLa cervical adenocarcinoma cells. Put plainly: MTT antiproliferative assay, HeLa. The format is cell-based. The note with it: Homo sapiens. As to the method:
(§1) Human T-cell leukemia cell line Jurkat (ATCC TIB-152, E6-1 clone) was cultured in RPMI-1640 (Invitrogen) supplemented with 10% FBS (Invitrogen), 100 mg/L penicillin G, 100 mg/L streptomycin, 1.0 mM sodium pyruvate, 1.5 g/L sodium bicarbonate, and 4.5 g/L glucose (all from Sigma). Human cervical cancer cell line HeLa (ATCC S3) was cultured in DMEM (Invitrogen) supplemented with 10% FBS, 100 mg/L penicillin G, and 100 mg/L streptomycin. MCF-7 (human mammary carcinoma) cells were cultured in DMEM supplemented with 1.0 mM sodium pyruvate, 1% GlutaMax™-1 (Invitrogen), 100 μg/mL penicillin, 100 μg/mL streptomycin, and 10% FBS. Human uterine sarcoma MES-SA and MES-SA/Dx5 cells were cultured in RPMI-1640 medium supplemented with 10% FBS, 100 mg/L penicillin G and 100 mg/L streptomycin. All cells were incubated at 37° C. in a humidified atmosphere with 5% CO2. The other cell lines were maintained in a similar fashion as previously described.
(§2) To evaluate antiproliferative properties of the compounds of Formula I, mitochondrial dehydrogenase activities were measured using the MTT assay. The cell lines were prepared by trypsinizing and seeding […] cells per well into microplates. All compounds were reconstituted in dimethyl sulfoxide (DMSO) at a concentration of either 100 mM or 25 mM prior to treatment. The cells were grown for 24 hrs before treatment at concentrations ranging from 0.004 to 100 microM and incubated for 48 hrs in 200 microL media. 20 microL of MTT reagent in serum free medium (5 mg/mL) was added to each well and incubated further for 2 hrs. Media was removed and the resulting formazan crystals were re-solubilized in 100 microL of DMSO and the optical density (OD) was measured using a Thermomax Molecular Device plate reader at a wavelength of 490 nm. The experiments were performed in quadruplicate and repeated at least twice for each compound per cell line. Cells treated with 0.1% DMSO were used as a negative control, while phenyl arsine oxide (PAO) was used as a positive killing control.
(§3) Human cancer cell lines were obtained from the American Type Culture Collection (ATCC, Manassas, Va., USA), the European Collection of Cell Culture (ECACC, Salisbury, UK) and the Deutsche Sammlung von Mikroorganismen and Zellkulturen (DSMZ, Braunschweig, Germany). Human cervical adenocarcinoma HeLa cells were cultured in DMEM supplemented with 10% fetal bovine serum (FBS). Human mammary carcinoma MCF-7 cells were cultured in RPMI supplemented with 10% FBS. The U87 and U373 cells were cultured in DMEM culture medium (Lonza code 12-136F, Vervier, Belgium), while the SKMEL-28 and A549 cells were cultured in RPMI culture medium (Lonza; code 12-115F) supplemented with 10% heat-inactivated FBS (Lonza, FBS South America code DE14-801F). […] All cell lines were cultured in T25 flasks, maintained and grown at 37° C., 95% humidity, 5% CO2.
(§4) To evaluate antiproliferative properties of the synthesized compounds, the MTT assay was used. The cell lines were assessed by trypsinizing each cell line and seeding 4×10^3 cells per well into 96-well plates. All compounds were dissolved in DMSO at a concentration of either 100 mM or 50 mM prior to cell treatment. The cells were grown for 24 h and then treated with compounds at concentrations ranging from 0.04 to 100 μM and incubated for 48 h in 200 μL media. 20 μL of MTT reagent in serum free medium (5 mg/mL) was added to each well and incubated further for 2 h. Media was removed, and the resulting formazan crystals were re-solubilized in 200 μL of DMSO. A490 was measured using a Thermomax Molecular Device plate reader. The experiments were performed in quadruplicate and repeated at least twice for each compound per cell line. Cells treated with 0.1% DMSO were used as a control, and 1 μM phenyl arsine oxide (PAO) was used as a positive killing control.

For assay [2], the system named is MCF-7 mammary gland adenocarcinoma cells. Put plainly: MTT antiproliferative assay, MCF-7. The note with it: Homo sapiens. The format is cell-based. As to the method: as §1, §2, §3, §4
Where [3] appears, read: Table 5, 48 h, MTT, ± SD, read-out: cell viability GI50, HeLa.
The mark [4] stands for this setting: MCF7, Table 5, 48 h, MTT, ± SD, read-out: cell viability GI50, MCF-7.
Where [5] appears, read: Table 1, 48 h treatment, MTT, ± SD, read-out: GI50 in vitro Values, HeLa.
Setting [6] is: MCF7, Table 1, 48 h treatment, MTT, ± SD, read-out: GI50 in vitro Values, MCF-7.

On to `O=C(c1ccccc1)c1[nH]c2[nH]c(=O)[nH]c(=O)c2c1-c1ccccc1` [Compound 2], for which the GI50 in assay [1] (setting [3]) and in assay [2] (setting [4]) was over 50000 nM throughout.

In the case of `O=C(c1ccccc1)c1[nH]c2[nH]c(-c3ccccc3)nc(=O)c2c1-c1ccccc1` [Compound 3, 6-Benzoyl-2-phenyl-5-phenyl-1H-pyrrolo[2,3-d]pyrimidin-4(7H)-one], the GI50 in assay [1] (setting [3]) and in assay [2] (setting [4]) was over 50000 nM each time.

On to `O=C(c1ccccc1)c1[nH]c2[nH]c(-c3cccnc3)nc(=O)c2c1-c1ccccc1` [Compound 4], for which the concentration for 50% growth inhibition (GI50) in assay [1] (setting [3]) and in assay [2] (setting [4]) was over 50000 nM in each case.

`CCOC(=O)c1nc(=O)c2c(-c3ccccc3)c(C(=O)c3ccccc3)[nH]c2[nH]1` [Compound 7]: the 50% growth inhibitory concentration (GI50) in assay [1] (setting [3]) and in assay [2] (setting [4]) was over 50000 nM throughout.

For the compound `CCOC(=O)CCc1nc(=O)c2c(-c3ccccc3)c(C(=O)c3ccccc3)[nH]c2[nH]1` [Compound 10, 6-Benzoyl-2-(2-ethoxycarbonylethyl)-5-phenyl-1H-pyrrolo[2,3-d]pyrimidin-4(7H)-one], the values for the concentration for 50% growth inhibition (GI50) in assay [1] (setting [3]) and in assay [2] (setting [4]) were 780 ± 50 nM and 930 ± 70 nM, respectively.

For the compound `CCCCc1nc(=O)c2c(-c3ccccc3)c(C(=O)c3ccccc3)[nH]c2[nH]1` [Compound 11, 6-Benzoyl-2-butyl-5-phenyl-1H-pyrrolo[2,3-d]pyrimidin-4(7H)-one], the results for the GI50 in assay [1] (setting [3]) and in assay [2] (setting [4]) were 340 ± 10 nM and 230 ± 10 nM, respectively.

As to `CCc1nc(=O)c2c(-c3ccccc3)c(C(=O)c3ccccc3)[nH]c2[nH]1` [Compound 12], the concentration for 50% growth inhibition (GI50) in assay [1] (setting [3]) was found to be 920 ± 110 nM; in assay [2] (setting [4]) it was 1100 ± 100 nM.

Take `O=C(c1ccccc1)c1[nH]c2[nH]c(CF)nc(=O)c2c1-c1ccccc1` [Compound 14]: the GI50 in assay [1] (setting [3]) was 3000 ± 200 nM; in assay [2] (setting [4]) it was 3200 ± 200 nM.

As for `O=C(c1ccccc1)c1[nH]c2[nH]c(C(F)F)nc(=O)c2c1-c1ccccc1` [Compound 15, 6-Benzoyl-2-(difluoromethyl)-5-phenyl-1H-pyrrolo[2,3-d]pyrimidin-4(7H)-one], the GI50 turned out to be 5100 ± 200 nM in assay [1] (setting [3]) and 4200 ± 500 nM in assay [2] (setting [4]).

As for `O=C(c1ccccc1)c1[nH]c2[nH]c(C(F)(F)F)nc(=O)c2c1-c1ccccc1` [Compound 16, 6-Benzoyl-5-phenyl-2-(trifluoromethyl)-1H-pyrrolo[2,3-d]pyrimidin-4(7H)-one], the figures for the concentration for 50% growth inhibition (GI50) in assay [1] (setting [3]) and in assay [2] (setting [4]) were 21500 ± 400 nM and 21100 ± 1100 nM, respectively.

For `COc1ccc(C(=O)c2[nH]c3[nH]cnc(=O)c3c2-c2cc(Br)cc(Br)c2)cc1` [Rig10, 5-(3,5-Dibromophenyl)-6-(4-methoxybenzoyl)-1H-pyrrolo[2,3-d]pyrimidin-4(7H)-one], the results for the concentration for 50% growth inhibition (GI50) in assay [1] (setting [5]) and in assay [2] (setting [6]) were 300 ± 70 nM and 110 ± 35 nM, respectively.

In the case of `O=C(c1ccc(OCc2ccccc2)cc1)c1[nH]c2[nH]cnc(=O)c2c1-c1cc(Br)cc(Br)c1` [Rig11, 6-(4-(Benzyloxy)benzoyl)-5-(3,5-dibromophenyl)-1H-pyrrolo[2,3-d]pyrimidin-4(7H)-one], the 50% growth inhibitory concentration (GI50) in assay [1] (setting [5]) was 400 ± 10 nM; in assay [2] (setting [6]) it was 310 ± 10 nM.

For the compound `O=C(c1ccc(F)cc1)c1[nH]c2[nH]cnc(=O)c2c1-c1cc(Br)cc(Br)c1` [Rig13, 5-(3,5-Dibromophenyl)-6-(4-fluorobenzoyl)-1H-pyrrolo[2,3-d]pyrimidin-4(7H)-one], the GI50 in assay [1] (setting [5]) came out at 6000 ± 1000 nM; in assay [2] (setting [6]), 800 ± 10 nM.

`O=C(c1ccc(Br)cc1)c1[nH]c2[nH]cnc(=O)c2c1-c1cc(Br)cc(Br)c1` [Rig14, 6-(4-Bromobenzoyl)-5-(3,5-dibromophenyl)-1H-pyrrolo[2,3-d]pyrimidin-4(7H)-one]: the GI50 in assay [1] (setting [5]) was 2000 ± 1000 nM; in assay [2] (setting [6]) it was 600 ± 100 nM.

With `COc1ccc(C(=O)c2[nH]c3[nH]cnc(=O)c3c2-c2cc(OC)c(OC)c(OC)c2)cc1` [Rig19, 6-(4-Methoxybenzoyl)-5-(3,4,5-trimethoxyphenyl)-1H-pyrrolo[2,3-d]pyrimidin-4(7H)-one], the concentration for 50% growth inhibition (GI50) was over 100000 nM in assay [1] (48 h, read-out: GI50 in vitro Values, HeLa) and 7000 ± 1000 nM in assay [2] (MCF7, 48 h, read-out: GI50 in vitro Values, MCF-7).

Consider `O=C(c1ccccc1)c1[nH]c2[nH]cnc(=O)c2c1-c1cccc(Br)n1` [Rig30, 6-Benzoyl-5-(6-bromopyridin-2-yl)-1H-pyrrolo[2,3-d]pyrimidin-4(7H)-one], for which the results for the GI50 in assay [1] (setting [5]) and in assay [2] (setting [6]) were 150 ± 50 nM and 135 ± 75 nM, respectively.

On to `COc1cc(-c2c(C(=O)c3ccccc3)[nH]c3[nH]cnc(=O)c23)cc(I)c1OC` [Rig31, 6-Benzoyl-5-(3-iodo-4,5-dimethoxyphenyl)-1H-pyrrolo[2,3-d]pyrimidin-4(7H)-one], for which the concentration for 50% growth inhibition (GI50) in assay [1] (setting [5]) amounted to 8000 ± 1000 nM; in assay [2] (setting [6]), 40000 ± 4000 nM.

With `COc1cc(-c2c(C(=O)c3ccccc3)[nH]c3[nH]cnc(=O)c23)cc(Br)c1OC` [Rig32, 6-Benzoyl-5-(3-bromo-4,5-dimethoxyphenyl)-1H-pyrrolo[2,3-d]pyrimidin-4(7H)-one], the GI50 in assay [1] (setting [5]) worked out at 7000 ± 1000 nM; in assay [2] (setting [6]), 10000 ± 5000 nM.

For the compound `O=C(c1ccccc1)c1[nH]c2[nH]cnc(=O)c2c1-c1cccc(Br)c1` [Rig33, 6-Benzoyl-5-(3-bromophenyl)-1H-pyrrolo[2,3-d]pyrimidin-4(7H)-one], the results for the GI50 in assay [1] (setting [5]) and in assay [2] (setting [6]) were 130 ± 50 nM and 60 ± 20 nM, respectively.

Regarding `O=C(c1ccccc1)c1[nH]c2[nH]cnc(=O)c2c1-c1cccc(Cl)c1` [Rig34, 6-Benzoyl-5-(3-chlorophenyl)-1H-pyrrolo[2,3-d]pyrimidin-4(7H)-one], the values for the GI50 in assay [1] (setting [5]) and in assay [2] (setting [6]) were 100 ± 70 nM and 60 ± 20 nM, respectively.

For the compound `O=C(c1ccccc1)c1[nH]c2[nH]cnc(=O)c2c1-c1cccc(I)c1` [Rig36, 6-Benzoyl-5-(3-iodophenyl)-1H-pyrrolo[2,3-d]pyrimidin-4(7H)-one], the GI50 in assay [1] (setting [5]) was determined as 200 ± 100 nM; in assay [2] (setting [6]) it was 150 ± 60 nM.

For the compound `O=C(c1ccccc1)c1[nH]c2[nH]cnc(=O)c2c1-c1c(Cl)cccc1Cl` [Rig40, 6-Benzoyl-5-(2,6-dichlorophenyl)-1H-pyrrolo[2,3-d]pyrimidin-4(7H)-one], the values for the GI50 in assay [1] (setting [5]) and in assay [2] (setting [6]) were 4880 ± 70 nM and 2200 ± 300 nM, respectively.

In the case of `O=C(c1ccccc1)c1[nH]c2[nH]cnc(=O)c2c1-c1cccnc1` [Rig41, 6-Benzoyl-5-(pyridin-3-yl)-1H-pyrrolo[2,3-d]pyrimidin-4(7H)-one], the GI50 worked out at 888 ± 61 nM in assay [1] (setting [5]) and 1260 ± 180 nM in assay [2] (setting [6]).

Turning to `O=C(c1ccccc1)c1[nH]c2[nH]cnc(=O)c2c1-c1cccc(O)c1` [Rig42, 6-Benzoyl-5-(3-hydroxyphenyl)-1H-pyrrolo[2,3-d]pyrimidin-4(7H)-one], the GI50 came to 860 ± 60 nM in assay [1] (setting [5]) and 1100 ± 120 nM in assay [2] (setting [6]).

In the case of `N#Cc1cccc(-c2c(C(=O)c3ccccc3)[nH]c3[nH]cnc(=O)c23)c1` [Rig43, 3-(6-Benzoyl-4-oxo-4,7-dihydro-1H-pyrrolo[2,3-d]pyrimidin-5-yl)benzonitrile], the concentration for 50% growth inhibition (GI50) worked out at 187 ± 9 nM in assay [1] (setting [5]) and 251 ± 17 nM in assay [2] (setting [6]).

Regarding `O=C(c1ccc(O)cc1)c1[nH]c2[nH]cnc(=O)c2c1-c1ccccc1` [Rig45, 6-(4-Hydroxybenzoyl)-5-phenyl-1H-pyrrolo[2,3-d]pyrimidin-4(7H)-one], the GI50 in assay [1] (setting [5]) is 303 ± 5 nM; in assay [2] (setting [6]), 261 ± 50 nM.
